Laboratory results published in BindingDB's records for doi:10.1016/j.bmc.2014.01.014 (Shenyang Pharmaceutical University, 2014).

Each molecule was assayed against Hepatocyte growth factor receptor (Homo sapiens, UniProt P08581) (assay: Inhibition of c-Met (unknown origin) using poly (Glu, Tyr) 4:1 after 30 mins by HTRF assay).

Structure (SMILES)	IC50
COc1cc2c(Oc3ccc(N=Cc4c(O)n(-c5ccc(F)cc5F)c(=O)[nH]c4=O)cc3F)ccnc2cc1OCCCN1CCCC1	12 nM
COc1cc2c(Oc3ccc(N=Cc4c(O)n(-c5ccc(F)cc5F)c(=O)[nH]c4=O)cc3F)ccnc2cc1OCCCN1CCOCC1	12 nM
COc1cc2c(Oc3ccc(N=Cc4c(O)n(-c5ccc(C)cc5)c(=O)[nH]c4=O)cc3F)ccnc2cc1OCCCN1CCN(C)CC1	2.7 nM
COc1cc2c(Oc3ccc(N=Cc4c(O)n(-c5ccc(F)cc5)c(=O)[nH]c4=O)cc3F)ccnc2cc1OCCCN1CCCC1	2.7 nM
